# Laboratory results taken from PubChem BioAssay AID220 (DTP/NCI, 2004).
# Values joined by “and” are separate entries in the source; they are usually repeats but may differ in a detail not shown here. Equal entries are not always repeated. Records with an inconclusive call do not appear.
# Tested on: CD8F1 mice, subcutaneous mammary adenocarcinoma, T/C%
# Experiment: NCI In Vivo Anticancer Drug Screen. Data for tumor model Mammary Adenocarcinoma CD8F1 (subcutaneous) in CD8F1
# Details: higher = larger tumour
# Method: The antitumor activity of compounds was measured in mice bearing transplantable tumors. Survival or tumor size were measured and the results are expressed as the measurement made in the treated group (T) divided by the measurement made in the vehicle treated control group (C). The tumor model used in this assay is Mammary Adenocarcinoma CD8F1 (subcutaneous) in CD8F1
# [1] = endpoint: median tumor weight (est.), dose: 6.25 mg/kg/injection, schedule: Q07DX005 (ip), vehicle: saline with Tween-80
# [2] = endpoint: median tumor weight (est.), dose: 12.5 mg/kg/injection, schedule: Q07DX005 (ip), vehicle: saline with Tween-80
# [3] = endpoint: median tumor weight (est.), dose: 25.0 mg/kg/injection, schedule: Q07DX005 (ip), vehicle: saline with Tween-80
# [4] = endpoint: median tumor weight (est.), dose: 50.0 mg/kg/injection, schedule: Q07DX005 (ip), vehicle: saline with Tween-80
# [5] = endpoint: median tumor weight (est.), dose: 100.0 mg/kg/injection, schedule: Q07DX005 (ip), vehicle: saline with Tween-80
smiles,measurement,setting,value
O=C(Nc1cccc(Cl)c1)ON1C(=O)C2C(C1=O)C1(Cl)C(Cl)C(Cl)C2(Cl)C1(Cl)Cl (stereo unspecified),T/C,"endpoint: median tumor weight change, dose: 62.5 mg/kg/injection, schedule: Q01DX001 (ip), vehicle: saline with Tween-80",112 % of control
same,T/C,"endpoint: median tumor weight change, dose: 125.0 mg/kg/injection, schedule: Q01DX001 (ip), vehicle: saline with Tween-80",112 % of control
same,T/C,"endpoint: median tumor weight change, dose: 250.0 mg/kg/injection, schedule: Q01DX001 (ip), vehicle: saline with Tween-80",95 % of control
c1cc2n(n1)CCN2,T/C,"endpoint: median tumor weight (est.), dose: 12.5 mg/kg/injection, schedule: Q07DX005 (ip), vehicle: saline",76 % of control
same,T/C,"endpoint: median tumor weight (est.), dose: 25.0 mg/kg/injection, schedule: Q07DX005 (ip), vehicle: saline",94 % of control
same,T/C,"endpoint: median tumor weight (est.), dose: 50.0 mg/kg/injection, schedule: Q07DX005 (ip), vehicle: saline",102 % of control
same,T/C,"endpoint: median tumor weight (est.), dose: 100.0 mg/kg/injection, schedule: Q07DX005 (ip), vehicle: saline",85 % of control
same,T/C,"endpoint: median tumor weight (est.), dose: 200.0 mg/kg/injection, schedule: Q07DX005 (ip), vehicle: saline",54 % of control
same,T/C,"endpoint: median tumor weight (est.), dose: 400.0 mg/kg/injection, schedule: Q07DX005 (ip), vehicle: saline",46 % of control
Ic1ncnc2c1ncn2C1CCCO1 (stereo unspecified),T/C,"endpoint: median tumor weight (est.), dose: 25.0 mg/kg/injection, schedule: Q07DX005 (ip), vehicle: Klucel (hydroxypropylcellulose) (HPC)",36 % of control
same,T/C,"endpoint: median tumor weight (est.), dose: 200.0 mg/kg/injection, schedule: Q07DX005 (ip), vehicle: Klucel (hydroxypropylcellulose) (HPC)",55 % of control and 64 % of control
same,T/C,"endpoint: median tumor weight (est.), dose: 400.0 mg/kg/injection, schedule: Q07DX005 (ip), vehicle: Klucel (hydroxypropylcellulose) (HPC)",41 % of control
S=C(Nc1ccc(Cl)c(Cl)c1)N1c2ccccc2-n2cccc2C1c1cccnc1 (stereo unspecified),T/C,"endpoint: median tumor weight change, dose: 250.0 mg/kg/injection, schedule: Q01DX001 (ip), vehicle: Klucel (hydroxypropylcellulose) (HPC)",48 % of control and 67 % of control
same,T/C,"endpoint: median tumor weight change, dose: 500.0 mg/kg/injection, schedule: Q01DX001 (ip), vehicle: Klucel (hydroxypropylcellulose) (HPC)",49 % of control and 57 % of control
same,T/C,"endpoint: median tumor weight change, dose: 1000.0 mg/kg/injection, schedule: Q01DX001 (ip), vehicle: Klucel (hydroxypropylcellulose) (HPC)",50 % of control and 70 % of control
same,T/C,"endpoint: median tumor weight change, dose: 2000.0 mg/kg/injection, schedule: Q01DX001 (ip), vehicle: Klucel (hydroxypropylcellulose) (HPC)",-11 % of control
CC[C@H]1CN2CCc3cc(OC)c(OC)cc3[C@@H]2C[C@@H]1C[C@@H]1c2cc(OC)c(OC)cc2CCN1CCN(CCCl)CCCl,T/C,"endpoint: mean tumor weight, dose: 2.5 mg/kg/injection, schedule: Q07DX005 (ip), vehicle: Klucel (hydroxypropylcellulose) (HPC)",195 % of control
same,T/C,"endpoint: mean tumor weight, dose: 5.0 mg/kg/injection, schedule: Q07DX005 (ip), vehicle: Klucel (hydroxypropylcellulose) (HPC)",181 % of control
same,T/C,"endpoint: mean tumor weight, dose: 5.0 mg/kg/injection, schedule: Q07DX006 (ip), vehicle: Klucel (hydroxypropylcellulose) (HPC)",89 % of control
same,T/C,"endpoint: mean tumor weight, dose: 10.0 mg/kg/injection, schedule: Q07DX005 (ip), vehicle: Klucel (hydroxypropylcellulose) (HPC)",160 % of control
same,T/C,"endpoint: mean tumor weight, dose: 10.0 mg/kg/injection, schedule: Q07DX006 (ip), vehicle: Klucel (hydroxypropylcellulose) (HPC)",169 % of control
same,T/C,"endpoint: mean tumor weight, dose: 20.0 mg/kg/injection, schedule: Q07DX006 (ip), vehicle: Klucel (hydroxypropylcellulose) (HPC)",159 % of control
Nc1nc(N)c2c(Cl)c(CNc3ccc(Cl)c(Cl)c3)ccc2n1,T/C,[1],55 % of control
same,T/C,[2],78 % of control
same,T/C,[3],82 % of control
same,T/C,[4],8 % of control
same,T/C,[5],27 % of control
Nc1nc2ccc(NCc3ccc(C(=O)NC(CCC(=O)O)C(=O)O)cc3)cc2c(=O)[nH]1 (stereo unspecified),T/C,"endpoint: median tumor weight change, dose: 25.0 mg/kg/injection, schedule: Q01DX001 (ip), vehicle: saline with Tween-80",115 % of control
same,T/C,"endpoint: median tumor weight change, dose: 100.0 mg/kg/injection, schedule: Q01DX001 (ip), vehicle: saline with Tween-80",68 % of control
Cc1ccc(S(=O)(=O)NC(=S)S)cc1,T/C,[2],110 % of control
same,T/C,[3],94 % of control
same,T/C,[5],91 % of control
same,T/C,"endpoint: median tumor weight (est.), dose: 200.0 mg/kg/injection, schedule: Q07DX005 (ip), vehicle: saline with Tween-80",95 % of control
same,T/C,"endpoint: median tumor weight (est.), dose: 400.0 mg/kg/injection, schedule: Q07DX005 (ip), vehicle: saline with Tween-80",106 % of control
[Cl][Pt+2][Cl].[NH-]CC1(C[NH-])CCC1,T/C,"endpoint: median tumor weight change, dose: 12.5 mg/kg/injection, schedule: Q01DX001 (ip), vehicle: suspension in saline",79 % of control
O=C1NC(c2ccccc2)N=C2Oc3ccccc3C=C12 (stereo unspecified),T/C,"endpoint: median tumor weight (est.), dose: 3.12 mg/kg/injection, schedule: Q07DX005 (ip), vehicle: saline with Tween-80",116 % of control
same,T/C,[1],50 % of control
same,T/C,[2],109 % of control
same,T/C,[3],78 % of control and 101 % of control
same,T/C,[4],95 % of control and 115 % of control
same,T/C,[5],63 % of control and 85 % of control
